Experimental data reported in ChEMBL document CHEMBL1148857, “In vitro and in vivo profile of 5-[(4'-trifluoromethyl-biphenyl-2-carbonyl)-amino]-1H-indole-2-carboxylic acid benzylmethyl carbamoylamide (dirlotapide), a novel potent MTP inhibitor for obesity” (Bioorg Med Chem Lett, 2007).
Calls of active or inactive are those of the source. The calls are words filed in the database; no cut-off is given here.

Key:
[1] = Permeability from basolateral to apical side of the Caco-2 cell membrane at 1 uM in presence of calcium; format: ADME, cell-based; details: human
[2] = Bioavailability in rat at 30 mg/kg, po; format: ADME, organism-based; details: in vivo
[3] = Half life in rat at 30 mg/kg, po; format: ADME, organism-based; set-up: dose 30 mg/kg, route oral; details: in vivo
[4] = Half life in portal cannulated Beagle dog at 1 mg/kg, po; format: ADME, organism-based, Canis lupus familiaris; set-up: dose 1 mg/kg, route oral; details: in vivo
[5] = molecular target: Platelet-activating factor receptor (Homo sapiens) (UniProt P25105); assay: Inhibition of platelet activating factor receptor at 1 uM
Chain of Platelet-activating factor receptor (Homo sapiens) (P25105 whole entry): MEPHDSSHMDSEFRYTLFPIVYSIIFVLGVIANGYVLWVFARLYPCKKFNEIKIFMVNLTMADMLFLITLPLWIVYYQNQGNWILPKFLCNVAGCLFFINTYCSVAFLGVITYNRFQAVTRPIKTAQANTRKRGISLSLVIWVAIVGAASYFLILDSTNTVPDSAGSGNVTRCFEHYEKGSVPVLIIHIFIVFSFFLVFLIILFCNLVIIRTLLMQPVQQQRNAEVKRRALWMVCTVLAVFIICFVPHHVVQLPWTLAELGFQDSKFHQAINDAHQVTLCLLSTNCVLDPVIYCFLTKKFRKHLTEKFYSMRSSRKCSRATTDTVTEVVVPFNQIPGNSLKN

[6] = Cmax in rat at 300 mg/kg, po; format: ADME, organism-based; set-up: dose 300 mg/kg, route oral; details: in vivo
[7] = Half life in rat at 5 mg/kg, iv; format: ADME, organism-based; set-up: dose 5 mg/kg, route intravenous; details: in vivo
[8] = molecular target: Cytochrome P450 1A2 (Homo sapiens, UniProt P05177); assay: Inhibition of CYP1A2; format: ADME
Chain of Cytochrome P450 1A2 (P05177 whole entry): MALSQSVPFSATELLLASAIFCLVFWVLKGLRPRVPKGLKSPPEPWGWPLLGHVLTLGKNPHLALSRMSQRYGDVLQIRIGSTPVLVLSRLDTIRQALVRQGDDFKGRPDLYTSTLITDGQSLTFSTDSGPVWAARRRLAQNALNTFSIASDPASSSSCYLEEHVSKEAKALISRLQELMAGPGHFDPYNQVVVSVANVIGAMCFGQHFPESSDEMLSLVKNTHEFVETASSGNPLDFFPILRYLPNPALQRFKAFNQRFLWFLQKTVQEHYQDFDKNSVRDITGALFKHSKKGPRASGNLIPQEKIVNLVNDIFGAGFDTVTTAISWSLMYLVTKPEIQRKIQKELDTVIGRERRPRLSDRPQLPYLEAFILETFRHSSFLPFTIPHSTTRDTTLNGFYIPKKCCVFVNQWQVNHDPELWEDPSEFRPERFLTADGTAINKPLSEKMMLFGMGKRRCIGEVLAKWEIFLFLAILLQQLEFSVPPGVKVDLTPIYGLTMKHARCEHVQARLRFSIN

[9] = Half life in Beagle dog at 1 mg/kg, iv; format: ADME, organism-based, Canis lupus familiaris; set-up: dose 1 mg/kg, route intravenous; details: in vivo
[10] = molecular target: 5-hydroxytryptamine receptor 2C (Homo sapiens) (UniProt P28335); assay: Inhibition of 5HT2C receptor at 1 uM
Chain of 5-hydroxytryptamine receptor 2C (Homo sapiens) (P28335 whole entry): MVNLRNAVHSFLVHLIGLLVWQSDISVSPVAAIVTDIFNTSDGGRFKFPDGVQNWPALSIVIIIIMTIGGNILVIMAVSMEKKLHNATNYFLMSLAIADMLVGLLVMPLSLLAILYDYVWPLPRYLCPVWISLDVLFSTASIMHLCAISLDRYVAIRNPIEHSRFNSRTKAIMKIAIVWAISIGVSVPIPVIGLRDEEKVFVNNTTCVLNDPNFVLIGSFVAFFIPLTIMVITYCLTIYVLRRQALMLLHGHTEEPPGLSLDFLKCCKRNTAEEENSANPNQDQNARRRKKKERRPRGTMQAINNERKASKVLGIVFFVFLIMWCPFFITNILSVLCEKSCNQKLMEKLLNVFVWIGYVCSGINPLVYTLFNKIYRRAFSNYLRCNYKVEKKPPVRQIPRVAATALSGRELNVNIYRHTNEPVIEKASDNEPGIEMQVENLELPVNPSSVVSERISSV

[11] = AUC (0 to t) in Beagle dog at 1 mg/kg, iv; format: ADME, organism-based, Canis lupus familiaris; set-up: dose 1 mg/kg, route intravenous; details: plasma
[12] = Permeability from basolateral to apical side of the Caco-2 cell membrane at 10 uM in presence of calcium; format: ADME, cell-based; details: human
[13] = Plasma clearance in monkey at 0.5 mg/kg, iv; format: ADME, organism-based, Macaca mulatta; set-up: dose 0.5 mg/kg, route intravenous; details: rhesus monkey
[14] = molecular target: Kappa-type opioid receptor (Homo sapiens) (UniProt P41145); assay: Inhibition of kappa opioid receptor at 1 uM
Chain of Kappa-type opioid receptor (Homo sapiens) (P41145 whole entry): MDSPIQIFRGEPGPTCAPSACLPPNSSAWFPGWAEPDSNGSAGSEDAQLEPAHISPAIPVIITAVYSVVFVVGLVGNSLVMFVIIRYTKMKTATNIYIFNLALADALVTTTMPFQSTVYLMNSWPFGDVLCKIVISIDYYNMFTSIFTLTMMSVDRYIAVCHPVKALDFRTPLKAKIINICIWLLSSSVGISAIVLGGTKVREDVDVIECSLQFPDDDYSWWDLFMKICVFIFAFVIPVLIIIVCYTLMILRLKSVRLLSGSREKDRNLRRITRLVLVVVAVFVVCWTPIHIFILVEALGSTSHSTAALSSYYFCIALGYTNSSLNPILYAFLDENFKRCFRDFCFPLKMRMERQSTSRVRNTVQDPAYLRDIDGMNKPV

[15] = Intrinsic clearance in monkey microsomes; format: ADME, Macaca mulatta, Microsome; details: rhesus monkey
[16] = molecular target: Muscarinic acetylcholine receptor M3 (Homo sapiens) (UniProt P20309); assay: Inhibition of muscarinic M3 receptor at 1 uM
Chain of Muscarinic acetylcholine receptor M3 (Homo sapiens) (P20309 whole entry, looked up): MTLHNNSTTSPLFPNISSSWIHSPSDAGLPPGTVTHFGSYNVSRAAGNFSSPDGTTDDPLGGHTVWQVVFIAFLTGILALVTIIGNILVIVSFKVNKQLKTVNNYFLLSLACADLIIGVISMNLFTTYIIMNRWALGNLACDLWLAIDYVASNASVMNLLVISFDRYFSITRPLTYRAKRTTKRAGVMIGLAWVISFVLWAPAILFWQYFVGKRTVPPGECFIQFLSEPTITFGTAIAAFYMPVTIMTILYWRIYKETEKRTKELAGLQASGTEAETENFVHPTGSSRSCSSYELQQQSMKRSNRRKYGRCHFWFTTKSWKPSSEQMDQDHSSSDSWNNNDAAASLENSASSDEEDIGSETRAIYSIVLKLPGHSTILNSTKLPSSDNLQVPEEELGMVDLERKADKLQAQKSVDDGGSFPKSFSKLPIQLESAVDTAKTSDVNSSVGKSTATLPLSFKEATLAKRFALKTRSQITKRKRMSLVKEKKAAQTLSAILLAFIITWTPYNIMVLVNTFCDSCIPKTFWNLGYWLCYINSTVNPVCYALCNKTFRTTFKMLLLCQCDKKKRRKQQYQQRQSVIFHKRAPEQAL

[17] = species: Homo sapiens; assay: Inhibition of NMDA receptor at 1 uM
[18] = AUC (0 to t) in rat at 5 mg/kg, iv; format: ADME, organism-based; set-up: dose 5 mg/kg, route intravenous; details: plasma
[19] = molecular target: 5-hydroxytryptamine receptor 4 (Homo sapiens) (UniProt Q13639); assay: Inhibition of 5HT4 receptor at 1 uM
Chain of 5-hydroxytryptamine receptor 4 (Homo sapiens) (Q13639 whole entry): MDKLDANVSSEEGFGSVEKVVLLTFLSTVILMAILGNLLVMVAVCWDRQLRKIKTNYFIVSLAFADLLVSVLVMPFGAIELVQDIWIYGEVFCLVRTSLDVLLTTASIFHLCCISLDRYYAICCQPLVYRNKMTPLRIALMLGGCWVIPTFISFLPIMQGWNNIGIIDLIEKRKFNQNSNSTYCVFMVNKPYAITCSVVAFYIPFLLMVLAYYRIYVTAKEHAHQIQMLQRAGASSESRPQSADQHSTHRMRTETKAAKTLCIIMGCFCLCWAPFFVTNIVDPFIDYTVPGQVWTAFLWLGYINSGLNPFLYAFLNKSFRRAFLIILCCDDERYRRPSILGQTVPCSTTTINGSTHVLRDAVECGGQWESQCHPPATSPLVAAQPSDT

[20] = Half life in rat at 0.3 mg/kg, iv; format: ADME, organism-based; set-up: dose 0.3 mg/kg, route intravenous; details: in vivo

- Papp B→A at 1 µM [1]: 0.4 ×10⁻⁶ cm/s
- bioavailability [2]: 2.3%
- half-life [3]: 6.3 h
- half-life [4]: 6.8 h
- Activity [5]: inactive
- Cmax [6]: 27 ng/mL
- half-life [7]: 11.3 h
- IC50 [8]: > 30 µM
- half-life [9]: 14 h
- Activity [10]: inactive
- AUC(0-t) [11]: 3260 ng·h/mL
- Papp B→A at 10 µM [12]: 0.3 ×10⁻⁶ cm/s
- clearance [13]: 12 mL/min/kg
- Activity [14]: inactive
- CLint scaled [15]: 835 mL/min/kg
- Activity [16]: inactive
- Activity [17]: inactive
- AUC(0-t) [18]: 5610 ng·h/mL
- Activity [19]: inactive
- half-life [20]: 2 h
SMILES: CN(Cc1ccccc1)C(=O)[C@@H](NC(=O)c1cc2cc(NC(=O)c3ccccc3-c3ccc(C(F)(F)F)cc3)ccc2n1C)c1ccccc1 [DIRLOTAPIDE]
